Structures can show the parent of a compound that is named as a salt.
Columns and labels:
[1] = test system: Myo-Inositol 1 Phosphate (IP1); test: Measurement of myo-inositol 1 phosphate (IP1) in rat hippocampi after oral administration (Experimental Example 3); type: in vivo, male Long-Evans rats; details: IP1 production (IP1/protein) in rat hippocampi; 10 mg/kg oral; relative to Vehicle administration group as 100%
Description: Measurement of Myo-Inositol 1 Phosphate (IP1)
Animals used were male Long-Evans rats. They were used after acclimation for at least 1 week. Test compounds were suspended in 0.5% (w/v) aqueous methylcellulose solution, and the suspension was orally administered to the rats. After a given time, lithium chloride dissolved in saline was subcutaneously administered into the rats. After a given time, their bilateral hippocampi were isolated from the rats, and the wet weight thereof was measured. The isolated hippocampi were homogenized with HEPES (registered trademark) buffer, followed by centrifugation. The IP1 and protein concentrations in the supernatant were measured by IP-One HTRF assay kit (Cisbio Bioassays) and BCA protein assay kit (Thermo Scientific), respectively. The level of the IP1 production was expressed as the ratio of the concentration of IP1 to that of protein. The increase rate of the IP1 production was shown as a relative value when Vehicle administration group as 100%.

[2] = target: T1, human M1 receptor (hCHRM1) (Homo sapiens, UniProt P11229); test: Measurement of M1 receptor positive allosteric modulator (M1PAM) activity, Ca2+ fluorescence by FDSS/μ cell (Experimental Example 2); type: cell-based; details: for activity (%) at 10 μM: 10 μM test compound, 100% = acetylcholine 1 μM, 0% = DMSO; for EC50: inflection point of concentration-dependent curve, in presence of acetylcholine at EC20 (0.8-1.0 nM), CHO-K1 cells expressing hCHRM1, read-out: IP value
T1 construct: expressed in transfected cells
T1 sequence (P11229 1-460): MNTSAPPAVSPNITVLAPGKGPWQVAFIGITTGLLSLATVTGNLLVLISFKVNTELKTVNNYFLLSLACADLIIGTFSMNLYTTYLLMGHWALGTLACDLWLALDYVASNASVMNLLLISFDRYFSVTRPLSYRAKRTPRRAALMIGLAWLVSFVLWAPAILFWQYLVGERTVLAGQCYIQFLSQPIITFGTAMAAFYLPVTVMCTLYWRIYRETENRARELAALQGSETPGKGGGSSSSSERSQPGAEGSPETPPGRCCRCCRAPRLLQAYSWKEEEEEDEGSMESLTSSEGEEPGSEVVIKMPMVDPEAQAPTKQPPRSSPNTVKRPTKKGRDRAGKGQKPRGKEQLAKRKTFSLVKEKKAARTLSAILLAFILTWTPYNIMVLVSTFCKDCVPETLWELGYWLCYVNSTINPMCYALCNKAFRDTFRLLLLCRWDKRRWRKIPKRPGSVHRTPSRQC
Description: Measurement of M1 Receptor Positive Allosteric Modulator (M1PAM) Activity
The activity of a test compound in the presence of acetylcholine at EC20 concentration (final concentration 0.8-1.0 nM), which affords an action corresponding to about 20% of the maximum activity, was measured as PAM activity. The method is as follows. CHO-K1 cells stably expressing a human M1 receptor (hCHRM1) were plated on a 384-well black clear bottom plate (BD Falcon) at 5,000 cells/well, and cultured in an incubator at 37° C., 5% CO2 for 1 day. The medium in the cell plate was removed, and a dye solution (prepared by adding Recording medium (DOJINDO LABORATORIES) to a final concentration of 1×concentration, Fluo-4 AM (DOJINDO LABORATORIES) to a final concentration of 2.5 μg/mL, Pluronic F127 (DOJINDO LABORATORIES) to a final concentration of 0.08%, and probenecid (DOJINDO LABORATORIES) to a final concentration of 1.25 mM to assay buffer (HBSS (Invitrogen), 20 mM HEPES (Invitrogen), 0.1% BSA (Wako Pure Chemical Industries, Ltd.))) was added at 30 μL/well. The cells were left standing in the incubator at 37° C., 5% CO2 for 30 min, and further left standing at room temperature for 30 min. A test compound prepared by diluting with assay buffer containing 3.2-4.0 nM acetylcholine was added at 10 μL/well, and the fluorescence was measured by FDSS/μ cell (Hamamatsu Photonics K.K.) for 1 min every 1 second. With the definition that the amount of change in the fluorescence on addition of acetylcholine (final concentration 1 μM) is 100% and that on addition of DMSO instead of a test compound is 0%, the activity (%) of the test compound was calculated, and the inflection point in the concentration-dependent curve of the test compound was calculated as IP values.

[3] = test system: Scopolamine-induced memory deficits models; test: Novel object recognition test (Experimental Example 4); type: in vivo, male Long-Evans rats; details: scopolamine 0.1 mg/kg s.c., retention trial 4 hr after acquisition, mean±standard error
Description: Novel Object Recognition Test Novel object recognition test is comprised of two trials called the acquisition and the retention trials. Scopolamine-induced memory deficits models were used for the test, and animals used were male Long-Evans rats. On the day before the test, for acclimation, the rats were allowed to freely move about the test box (40×40×50 cm) for 10 minutes. On the test day, the rats were acclimated to the test room for about 1 hr prior to the test. The test compounds were orally administered to the rats in a single dose a given time before the acquisition trial. For induction of learning and memory deficits, scopolamine (0.1 mg/kg) was subcutaneously administered into the rats 30 min before the acquisition trial. For the acquisition trial, two identical objects (A1, A2) were placed in the test box. The rats were put in the test box for 3 min, and the duration exploring each object was measured. The retention trial was performed 4 hr after the acquisition trial. For the retention trial, one familiar object (A3) used for the acquisition trial and one novel object (B) having a different shape from A3 were placed in the test box. After setting the objects, the rats were introduced into the test box and retention trial was performed for 3 min. The duration for exploring each object in the acquisition trial and the retention trial was measured, and the exploration rate of novel object was calculated. The exploration rate of novel object was expressed as (the duration exploring the novel object)/[(the duration exploring the novel object)+(the duration exploring the familiar object)]×100(%) at mean±standard error.

[4] = target: T1, human M1 receptor (hCHRM1); test: Measurement of M1 receptor positive allosteric modulator (M1PAM) activity, Ca2+ fluorescence by FLIPRtetra (Experimental Example 1); type: cell-based; details: for activity (%) at 10 μM: 10 μM test compound, 100% = acetylcholine 1 μM, 0% = DMSO; for EC50: inflection point of concentration-dependent curve, in presence of acetylcholine at EC20 (0.8-1.0 nM), CHO-K1 cells expressing hCHRM1, read-out: IP value
Method in brief: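 CHO-K1 cells stably expressing hCHRM1, loaded with Fluo-4 AM (probenecid), received compound with acetylcholine at EC20 (final 0.8-1.0 nM); Ca2+ fluorescence read 1 min by FLIPRtetra. Activity scaled 0% (DMSO) to 100% (1 μM acetylcholine); IP from inflection point of concentration curve.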

Row | activity (%) at 10 μM [2] [%] | EC50 [2] [nM] | activity (%) at 10 μM [4] [%] | EC50 [4] [nM] | Compound | increase rate (%) at 10 mg/kg [1] [%] | exploration rate of novel object (%) ([3]; 3 mg/kg oral) | exploration rate of novel object (%) ([3]; 1 mg/kg oral)
1 | 99 | 4.5 |  |  | Cc1cc2c(cc1Cc1ccc(-c3ccn(C)n3)cc1)C(=O)N([C@H]1COCC[C@@H]1O)CO2 [Example 104, 3-((3S,4S)-4-hydroxytetrahydro-2H-pyran-3-yl)-7-methyl-6-(4-(1-methyl-1H-pyrazol-3-yl)benzyl)-2,3-dihydro-4H-1,3-benzoxazin-4-one] | 86 | 61.6±2.2 | 
2 |  |  | 88 | 6 | Cc1c(Cc2ccc(-n3cccn3)nc2)cc2c(c1F)OCN([C@H]1CCC[C@@H]1O)C2=O [Example 13, 8-fluoro-3-((1S,2S)-2-hydroxycyclopentyl)-7-methyl-6-((6-(1H-pyrazol-1-yl)pyridin-3-yl)methyl)-2,3-dihydro-4H-1,3-benzoxazin-4-one] | 102 |  | 60.2±3.0
3 | 105 | 4 |  |  | CCn1ccc(-c2ccc(Cc3cc4c(c(F)c3C)OCN([C@H]3CCC[C@@H]3O)C4=O)cn2)n1 [Example 91, 6-((6-(1-ethyl-1H-pyrazol-3-yl)pyridin-3-yl)methyl)-8-fluoro-3-((1S,2S)-2-hydroxycyclopentyl)-7-methyl-2,3-dihydro-4H-1,3-benzoxazin-4-one] |  |  | 
4 | 103 | 4.6 |  |  | Cc1nn(C)cc1-c1ccc(Cc2cc3c(c(F)c2C)OCN([C@H]2CCC[C@@H]2O)C3=O)cn1 [Example 93, 6-((6-(1,3-dimethyl-1H-pyrazol-4-yl)pyridin-3-yl)methyl)-8-fluoro-3-((1S,2S)-2-hydroxycyclopentyl)-7-methyl-2,3-dihydro-4H-1,3-benzoxazin-4-one] |  |  | 
5 | 99 | 38 |  |  | Cc1c(Cc2ccc(-n3nccn3)cc2)cc2c(c1C)OCN([C@H]1COCC[C@@H]1O)C2=O [Example 142, 1,5-anhydro-2,4-dideoxy-2-(7,8-dimethyl-4-oxo-6-(4-(2H-1,2,3-triazol-2-yl)benzyl)-2H-1,3-benzoxazin-3(4H)-yl)-L-threo-pentitol] |  |  | 
6 | 103 | 15 |  |  | Cc1cc2c(cc1Cc1ccc(-n3cccn3)nc1)C(=O)N([C@H]1COCC[C@@H]1O)CO2 [Example 103, 1,5-anhydro-2,4-dideoxy-2-(7-methyl-4-oxo-6-((6-(1H-pyrazol-1-yl)pyridin-3-yl)methyl)-2H-1,3-benzoxazin-3(4H)-yl)-L-threo-pentitol] |  |  | 
7 | 101 | 3.4 |  |  | Cc1c(Cc2ccc(-c3ccn(C)n3)nc2)cc2c(c1F)OCN([C@H]1CCCC[C@@H]1O)C2=O [Example 92, 8-fluoro-3-((1S,2S)-2-hydroxycyclohexyl)-7-methyl-6-((6-(1-methyl-1H-pyrazol-3-yl)pyridin-3-yl)methyl)-2,3-dihydro-4H-1,3-benzoxazin-4-one] |  |  | 
8 | 99 | 5.3 |  |  | Cc1c(Cc2ccc(-c3ccn(C)n3)cc2)cc2c(c1F)OCN([C@H]1COCC[C@@H]1O)C2=O [Example 108, 1,5-anhydro-2,4-dideoxy-2-(8-fluoro-7-methyl-6-(4-(1-methyl-1H-pyrazol-3-yl)benzyl)-4-oxo-2H-1,3-benzoxazin-3(4H)-yl)-L-threo-pentitol] |  |  | 
9 |  |  | 108 | 20 | Cc1ccc(Cc2cc3c(cc2C)OCN([C@H]2CCCC[C@@H]2O)C3=O)cn1 (single isomer, unassigned) [Example 28, 3-(trans-2-hydroxycyclohexyl)-7-methyl-6-((6-methylpyridin-3-yl)methyl)-2,3-dihydro-4H-1,3-benzoxazin-4-one monohydrochloride (optical isomer)] | 36 |  | 
10 | 99 | 9.1 |  |  | C#Cc1ccc(Cc2cc3c(c(C)c2C)OCN([C@H]2COCC[C@@H]2O)C3=O)cn1 [Example 112, 1,5-anhydro-2,4-dideoxy-2-(6-((6-ethynylpyridine-3-yl)methyl)-7,8-dimethyl-4-oxo-2H-1,3-benzoxazin-3(4H)-yl)-L-threo-pentitol] |  |  | 
11 | 99 | 5.5 |  |  | CCc1cc2c(cc1Cc1ccc(-n3cccn3)cc1)C(=O)N([C@H]1COCC[C@@H]1O)CO2 [Example 107, 1,5-anhydro-2,4-dideoxy-2-(7-ethyl-4-oxo-6-(4-(1H-pyrazol-1-yl)benzyl)-2H-1,3-benzoxazin-3(4H)-yl)-L-threo-pentitol] |  |  | 

Row | Compound | activity (%) at 10 μM [2] [%] | EC50 [2] [nM] | activity (%) at 10 μM [4] [%] | EC50 [4] [nM] | increase rate (%) at 10 mg/kg [1] [%] | exploration rate of novel object (%) ([3]; 3 mg/kg oral) | exploration rate of novel object (%) ([3]; 1 mg/kg oral)
12 | Cc1c(Cc2ccc(Cl)nc2)cc2c(c1Cl)OCN([C@H]1CCC[C@@H]1O)C2=O [Example 24, 8-chloro-6-((6-chloropyridin-3-yl)methyl)-3-((1S,2S)-2-hydroxycyclopentyl)-7-methyl-2,3-dihydro-4H-1,3-benzoxazin-4-one] |  |  | 94 | 3.1 | 26 | 63.5±2.4 | 
13 | Cc1c(Cc2ccc(C#C[Si](C)(C)C)nc2)cc2c(c1C)OCN([C@H]1COCC[C@@H]1O)C2=O [Example 111, 1,5-anhydro-2,4-dideoxy-2-(7,8-dimethyl-4-oxo-6-((6-((trimethylsilyl)ethynyl)pyridin-3-yl)methyl)-2H-1,3-benzoxazin-3(4H)-yl)-L-threo-pentitol] | 96 | 68 |  |  |  |  | 

— patent US10323027B2, “2,3-dihydro-4H-1,3-benzoxazin-4-one derivatives as modulators of cholinergic muscarinic M1 receptor” (Takeda Pharmaceutical Company Limited, priority 2015, dated 2019)
